Laboratory results from patent publication US8026207B2, “Peptides and compositions for inhibiting fungal growth” (Japan Science and Technology Agency, priority 2005, dated 2011).
Ends that are not written are not given here.

What was measured:
Candida = conditions: cited from earlier work
human erythrocytes = test: Toxicity Test 1: hemolytic test using erythrocytes; type: cell-based; conditions: peptides 0.325-100 μM, FIG. 3
Experimental: A final concentration of the peptides was adjusted in a range of 0.325-100 μM, and the test was done using human erythrocytes in accordance with Nikawa H, Fukushima H, Makihira S, Hamada T, Samaranayake L P. Fungicidal effect of three new synthetic cationic peptides against Candida albicans. Oral Dis. 2004 July; 10(4): 221-8.

C. albicans = test: Antifungal Test 1: survival of Candida by colony count after incubation with peptide; type: cell-based; conditions: for concentration showing a lethal ratio of 100%: Candida strain from oral cavity of a patient, 90 min at 37° C., colony count after 48 h
Experimental: The antifungal action against Candida was examined in order to confirm the antifungal effect of the present peptide. The peptide was synthesized by a conventional amino acid synthesis method using a peptide synthesizer manufactured by Shimazu Co. of Japan. The strain of Candida was isolated and provided from oral cavity of a patient in Glasgowden Hospital. The antifungal effect of the present peptide was evaluated using the above Candida strain according to the method of Edgerton et al (1998). Twenty μl of the suspension of C. albicans (1.8×10^5 cfu/mL) was mixed with the same amount of a peptide solution (0.325 μM-25 μM of the peptide concentration) and incubated for 90 min at 37° C. The reaction was stopped by adding Yeast Nitrogen Base medium. The resulting mixture was spread onto Sabouraud dextrose agar plate and incubated for 48 h at 37° C. The number of living strains was determined by colony count and survival percentage (%) was calculated in comparison with the number of colony (100%) obtained using 1 mM phosphate buffer as a control instead of the peptide solution.
The antifungal effect (∘) of the present peptide (JH8194Y) is compared with that of JH8194 (*) , His5:Histatin 5 ([…]:♦)(SEQ ID NO: 6), LFG: Bovine lactoferrin ([…]: ▪)fSEQ ID NO: 7), LFB frag (FKCRRWQWRMKKLG:▴)(SEQ ID NO: 8), and Dhvar 4: Histatin analog developed by Holland ACTA (KRLFKKLLFSLRKY: x)(SEQ ID NO: 9). The ordinate and abscissa axes of FIG. 1 indicate percentage survived of Candida, and the concentration of peptide, respectively.

## C[C@@H]1[C@H](O)[C@@H](C)/C=C/C=C/C=C/C=C/C=C/C=C/C=C/[C@H](O[C@@H]2O[C@H](C)[C@@H](O)[C@H](N)[C@@H]2O)C[C@@H]2O[C@](O)(C[C@@H](O)C[C@@H](O)[C@H](O)CC[C@@H](O)C[C@@H](O)CC(=O)O[C@H]1C)C[C@H](O)[C@H]2C(=O)O [amphotericin B]
Candida
  Minimal Fungicidal Concentration: 5 µM
Human erythrocytes
  concentration eliciting hemolysis: ≥ 5 µM

## DSHEKRHHGYKRKFHEKHHSHRGY (Synthetic peptide Histatin 5) [basic antifungal peptide of the Histatin family existing in saliva]
C. albicans
  concentration showing a lethal ratio of 100%: > 50 µM

## KRLFRRWQWRMKKY
C. albicans
  concentration showing a lethal ratio of 100%: 2.5 µM
C. albicans; FIG. 1
  antifungal effect (comparison in words): much stronger antifungal effect than lactoferrin and lactoferrin B

## KRLFRRWQWRY
C. albicans
  concentration showing a lethal ratio of 100%: 1.25 µM
